Patent EP2253620B1, “SUBSTITUTED 3-CYANOQUINOLINES AS PROTEIN TYROSINE KINASES INHIBITORS” (Wyeth Holdings LLC, priority 1998, dated 2000)
pIC50: −log10 of the molar value.

Experiments:
Format in all cases: biochemical
Mek and Erk = Mek and Erk (Homo sapiens, UniProt P28482+Q02750); test: Mitogen Activated Protein Kinase (MAPK) coupled assay (Mek-Erk); conditions: coupled MEK 1 / ERK2; separate entries = separate tests; read-out: Mek and Erk
Experimental: Mitogen Activated Protein Kinase (MAPK) Assay
To evaluate inhibitors of the MAP (mitogen activated protein) kinase a two component coupled standard pharmacological test procedure, which measures phosphorylation of a serine/threonine residue in an appropriate sequence in the substrate in the presence and absence of a putative inhibitor, was used. Recombinant human MEK 1 (MAPKK) was first used to activate recombinant human ERK2 (MAPK) and the activated MAPK (ERK) was incubated with substrate (MBP peptide or MYC peptide) in the presence of ATP, Mg^+2 and radiolabeled ^33P ATP. The phosphorylated peptide was captured on a P 81 phosphocellulose filter (paper filter or embedded in microtiter plate) washed and counted by scintillation methods.
The peptide substrates used in the assay are MBP, peptide substrate ([…]), or synthetic Myc substrate, ([…]•5 TFA. The recombinant enzymes used were prepared as GST fusion proteins of human ERK 2 and human MEK 1. Inhibitor samples were prepared as 10X stocks in 10% DMSO and an appropriate aliquot was used to deliver either 10 ug/ml for a single point screening dose or 100, 10, 1, and 0.1 uM final concentration for a dose response curve. Final DMSO concentrations were less than or equal to 1%.
The reaction was run as follows in 50 mM Tris kinase buffer, pH 7.4 in a reaction volume of 50 ul. The appropriate volume of kinase buffer and inhibitor sample was added to the tube. Appropriate dilution of enzyme was delivered to give 2-5 ug recombinant MAPK (Erk ) per tube. The inhibitor was incubated with MAPK (Erk) for 30 min at 0 deg. C. Recombinant Mek (MAPKK) ( 0.5-2.5 ug) or fully activated Mek (0.05-0.1 units) was added to activate the Erk and incubated for 30 min at 30° C. Then substrate and gamma ^33P ATP was were added to give a final concentration of 0.5- 1 mM MBPP or 250-500 uM Myc; 0.2-0.5 uCi gamma P 33 ATP/tube; 50 µM ATP final concentration. Samples were incubated at 30°C for 30 minutes and the reaction was stopped by adding 25 µl of ice cold 10 %TCA .After samples were chilled on ice for 30 min, 20 µl of sample was transferred onto P 81 phosphocellulose filter paper or appropriate MTP with embedded P 81 filter. Filter papers or MTP were washed 2 times with a large volume of 1% acetic acid, then 2 times with water. The filters or MTP were briefly air dried before addition of scintillant and samples were counted in the appropriate scintillation counter set up for reading ^33P isotope. Samples included a positive control (activated enzyme plus substrate); a no enzyme control; a no substrate control; samples with different concentrations of putative inhibitor; and samples with reference inhibitors (other active compounds or non-specific inhibitors such as staurosporine or K252 B).
The raw data was captured as cpm. Sample replicates were averaged and corrected for background count. Mean cpm data was tabulated by group and % inhibition by a test compound was calculated as (corrected cpm control- corrected. cpm sample/control) X 100 = % inhibition. […] The results obtained for representative compounds of this invention are listed in TABLE 2 where there may be separate entries for the same compound; this is an indication that the compound was evaluated more than one time.

[1] = target: T1, epidermal growth factor receptor kinase (Homo sapiens, UniProt P00533); test: Inhibition of Epidermal Growth Factor Receptor Kinase (EGF-R) using recombinant enzyme; conditions: averages of the individual determinations
T1 construct: containing the EGFR cDNA encoding amino acids 645 - 1186 preceded by Met-Ala-(His)6; made in house; host or cells: Sf9 insect cells, recombinant baculovirus vHcEGFR52
Experimental: Representative test compounds were evaluated for their ability to inhibit the phosphorylation of the tyrosine residue of a peptide substrate catalyzed by the enzyme epidermal growth factor receptor kinase. […] The enzyme used in this assay is the His-tagged cytoplasmic domain of EGFR. A recombinant baculovirus (vHcEGFR52) was constructed containing the EGFR cDNA encoding amino acids 645 - 1186 preceded by Met-Ala-(His)6. Sf9 cells in 100 mm plates were infected at an moi of 10 pfu/cell and cells were harvested 48 h post infection. A cytoplasmic extract was prepared using 1% Triton X-100 and applied to Ni-NTA column. After washing the column with 20 mM imidazole, HcEGFR was eluted with 250 mM imidazole (in 50 mM Na2HPO4, pH 8.0, 300 mM NaCl). Fractions collected were dialyzed against 10 mM HEPES, pH 7.0, 50 mM NaCl, 10% glycerol, 1ug/mL antipain and leupeptin and 0.1 mM Pefabloc SC. The protein was frozen in dry ice/methanol and stored -70°C.
Test compounds were made into 10 mg/mL stock solutions in 100% dimethylsulfoxide (DMSO). Prior to experiment, stock solutions were diluted to 500 uM with 100% DMSO and then serially diluted to the desired concentration with HEPES buffer (30 mM HEPES pH 7.4).
For the enzyme reaction, 10 µL of each inhibitor (at various concentrations) were added to each well of a 96-well plate. To this was added 3 µL of enzyme (1:10 dilution in 10mM HEPES, pH 7.4 for final conc. of 1:120). This was allowed to sit for 10 min on ice and was followed by the addition of 5 µl peptide (80 µM final conc.), 10 µl of 4X Buffer (Table A), 0.25 µL ^33P-ATP and 12 µL H2O. The reaction was allowed to run for 90 min at room temperature and was followed by spotting the entire volume on to precut P81 filter papers. The filter discs were washed 2X with 0.5% phosphoric acid and radioactivity was measured using a liquid scintillation counter.
The % inhibition of the test compound was determined for at least three different concentrations and the IC50 value was evaluated from the dose response curve. […] CPM(control) is in units of counts per minute and was a number expressing the amount of radiolabled ATP (g-^33P) incorporated into the RR-SRC peptide substrate by the enzyme after 90 minutes at room temperature in the absence of test compound as measured by liquid scintillation counting. The CPM values were corrected for the background counts produced by ATP in the absence of the enzymatic reaction. The IC50 values in TABLE 1 are averages of the individual determinations.

[2] = target: T2, Kinase insert Domain containing Receptor (KDR: the catalytic domain of the VEGF receptor) (Homo sapiens, UniProt P35968); test: Inhibition of Kinase insert Domain containing Receptor (KDR) tyrosine kinase activity
T2 construct: KDR: the catalytic domain of the VEGF receptor
Text: Inhibition of Kinase insert Domain containing Receptor (KDR: the catalytic domain of the VEGF receptor)
In this standard pharmacological test procedure, KDR protein is mixed, in the presence or absence of a inhibitor compound, with a substrate peptide to be phosphorylated (a copolymer of glutamic acid and tyrosine, E:Y :: 4:1) and other cofactors such as Mg^++ and sodium vanadate (a protein tyrosine phosphatase inhibitor) in an appropriate buffer to maintain pH (7.2). ATP and a radioactive tracer (either P^32- or P^33- labeled ATP) is then add to initiate phosphorylation. After incubation, the radioactive phosphate associated with the acid-insoluble fraction of the assay mixture is then quantified as reflection of substrate phosphorylation. […] Multiple entries for a given compound indication it was tested multiple times.

[3] = target: Epithelial Cell Kinase (ECK) (Homo sapiens, UniProt P29317); test: Inhibition of Epithelial Cell Kinase (ECK) tyrosine kinase activity
Experimental: In this standard pharmacological test procedure, a biotinylated peptide substrate is first immobilized on neutravidin-coated microtiter plates. The test drug, the Epithelial Cell Kinase (ECK), Mg^++, sodium vanadate (a protein tyrosine phosphatase inhibitor), and an appropriate buffer to maintain pH (7.2) are then added to the immobilized substrate-containing microtiter wells. ATP is then added to initiate phosphorylation. After incubation, the assay plates are washed with a suitable buffer leaving behind phosphorylated peptide which is exposed to horse radish peroxidase (HRP)-conjugated anti-phosphotyrosine monoclonal antibody. The antibody-treated plates are washed again and the HRP activity in individual wells is quantified as a reflection of degree of substrate phosphorylation. […] Multiple entries for a given compound indication it was tested multiple times.

T1 sequence (P00533 669-1210): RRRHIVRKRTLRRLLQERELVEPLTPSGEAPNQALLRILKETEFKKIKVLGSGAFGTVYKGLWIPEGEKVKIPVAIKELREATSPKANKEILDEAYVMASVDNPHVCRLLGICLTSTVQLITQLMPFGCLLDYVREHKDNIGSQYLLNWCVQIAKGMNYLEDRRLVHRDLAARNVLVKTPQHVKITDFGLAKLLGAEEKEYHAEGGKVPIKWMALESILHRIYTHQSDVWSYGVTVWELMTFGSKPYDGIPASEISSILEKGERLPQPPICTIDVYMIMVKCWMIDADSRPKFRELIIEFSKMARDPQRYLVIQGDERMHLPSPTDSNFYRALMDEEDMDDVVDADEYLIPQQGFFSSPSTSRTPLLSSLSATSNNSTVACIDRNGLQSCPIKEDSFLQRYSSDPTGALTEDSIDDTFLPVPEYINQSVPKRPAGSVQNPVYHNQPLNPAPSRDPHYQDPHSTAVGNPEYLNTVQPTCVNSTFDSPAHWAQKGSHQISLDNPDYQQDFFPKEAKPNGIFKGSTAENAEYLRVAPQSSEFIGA
T2 sequence (P35968 834-1162 limits assumed): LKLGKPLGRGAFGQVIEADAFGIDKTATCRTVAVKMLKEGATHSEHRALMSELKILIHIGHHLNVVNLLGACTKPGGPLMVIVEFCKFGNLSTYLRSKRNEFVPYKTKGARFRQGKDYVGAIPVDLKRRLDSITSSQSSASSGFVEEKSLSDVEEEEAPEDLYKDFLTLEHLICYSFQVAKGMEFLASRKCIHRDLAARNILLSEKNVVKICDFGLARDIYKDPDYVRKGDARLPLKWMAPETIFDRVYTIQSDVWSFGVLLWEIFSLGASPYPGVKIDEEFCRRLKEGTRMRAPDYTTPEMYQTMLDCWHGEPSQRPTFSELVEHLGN
Chain of Epithelial Cell Kinase (ECK) (P29317 24-976, species assumed): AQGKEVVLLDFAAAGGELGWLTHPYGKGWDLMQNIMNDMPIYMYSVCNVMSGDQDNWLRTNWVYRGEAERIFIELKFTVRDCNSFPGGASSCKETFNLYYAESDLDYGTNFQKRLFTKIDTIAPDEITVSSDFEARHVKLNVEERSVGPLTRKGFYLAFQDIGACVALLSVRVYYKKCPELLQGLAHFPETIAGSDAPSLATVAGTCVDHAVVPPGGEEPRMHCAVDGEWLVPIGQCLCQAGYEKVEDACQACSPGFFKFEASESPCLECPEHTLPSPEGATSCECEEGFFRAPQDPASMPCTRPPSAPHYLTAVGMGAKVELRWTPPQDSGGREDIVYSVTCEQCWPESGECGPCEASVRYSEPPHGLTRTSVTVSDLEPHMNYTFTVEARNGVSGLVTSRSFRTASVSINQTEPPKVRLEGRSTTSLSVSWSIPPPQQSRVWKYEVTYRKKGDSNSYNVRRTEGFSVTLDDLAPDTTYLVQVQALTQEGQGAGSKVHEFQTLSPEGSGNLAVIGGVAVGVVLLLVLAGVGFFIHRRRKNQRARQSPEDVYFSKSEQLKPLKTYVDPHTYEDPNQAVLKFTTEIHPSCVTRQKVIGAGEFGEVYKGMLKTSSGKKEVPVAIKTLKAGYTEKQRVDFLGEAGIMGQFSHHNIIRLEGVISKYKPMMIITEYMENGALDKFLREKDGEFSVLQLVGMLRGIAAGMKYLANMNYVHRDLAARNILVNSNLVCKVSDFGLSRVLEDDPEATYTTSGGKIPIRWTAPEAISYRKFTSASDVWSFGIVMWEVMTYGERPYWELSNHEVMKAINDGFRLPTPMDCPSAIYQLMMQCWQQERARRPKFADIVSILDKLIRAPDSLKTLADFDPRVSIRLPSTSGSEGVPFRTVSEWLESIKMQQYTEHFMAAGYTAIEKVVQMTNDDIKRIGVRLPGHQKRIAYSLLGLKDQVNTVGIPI
Chain of Mek and Erk (Q02750 whole entry): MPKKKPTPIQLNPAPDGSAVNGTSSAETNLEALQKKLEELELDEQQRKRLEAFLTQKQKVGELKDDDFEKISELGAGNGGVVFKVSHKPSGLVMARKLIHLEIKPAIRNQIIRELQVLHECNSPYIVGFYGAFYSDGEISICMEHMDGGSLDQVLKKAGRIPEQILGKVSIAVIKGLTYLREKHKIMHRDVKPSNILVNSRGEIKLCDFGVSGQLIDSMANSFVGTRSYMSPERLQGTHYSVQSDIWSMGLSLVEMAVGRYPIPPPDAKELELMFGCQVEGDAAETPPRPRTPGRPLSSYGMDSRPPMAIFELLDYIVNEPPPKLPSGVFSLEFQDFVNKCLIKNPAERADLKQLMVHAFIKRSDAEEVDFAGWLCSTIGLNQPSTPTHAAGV
Chain of Mek and Erk (P28482 2-360): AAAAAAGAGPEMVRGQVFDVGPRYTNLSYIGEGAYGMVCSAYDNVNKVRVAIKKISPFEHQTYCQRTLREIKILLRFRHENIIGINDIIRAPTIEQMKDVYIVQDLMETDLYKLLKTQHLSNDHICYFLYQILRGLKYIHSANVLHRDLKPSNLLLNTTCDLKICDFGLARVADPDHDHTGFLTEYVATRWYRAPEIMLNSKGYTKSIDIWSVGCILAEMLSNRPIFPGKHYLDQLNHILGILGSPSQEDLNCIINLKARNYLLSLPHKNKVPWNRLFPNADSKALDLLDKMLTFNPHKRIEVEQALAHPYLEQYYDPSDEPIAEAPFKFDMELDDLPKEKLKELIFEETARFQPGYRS

Molecule `N#Cc1cnc2ccc(NC(=O)C#CCN3CCC4(CC3)OCCO4)cc2c1Nc1cccc(Br)c1` [Example 82, 4-(1,4-Dioxa-8-azaspiro[4,5]dec-8-yl)but-2-ynoic Acid [4-(3-Bromophenylamino)-3-cyanoquinolin-6-yl] Amide] has a pIC50 (Mek and Erk) of 4.52, a pIC50 [1] of 7.30 and a pIC50 [2] of less than 5.74. The pIC50 [3] was less than 5.74.
